In patent publication US12281149B2, “Modulators of G-protein coupled receptors” (priority 2021, dated 2025):
*1 amine or outer side, *2 acyl side, *3 side chain or, on linkers, in order; H or OH if unused. Where a SMILES comes first, the peptide text is derived from it. Side-chain parts run from the residue outwards. [ ]: non-standard residue; d: D form. The star is where a group is joined. C20 diacid = O=C(O)CCCCCCCCCCCCCCCCCCC(=O)*; γGlu = O=C(O)[C@H](CCC(=O)[*:2])N[*:1]; X43 = O=C1CCC(C(=O)*)(c2ccccc2)CN1; X79 = O=C1CC(C(=O)*)(c2ccccn2)CN1; X42 = CCOc1cnn(C(C)(C)C(=O)*)c1; AEEA = NCCOCCOCC(=O)O; Aib = CC(C)(N)C(=O)O; βAla = NCCC(=O)O

What was measured:
Type in all cases: cell-based
GLP-1 receptor [1] = target: T1, GLP-1 receptor (Homo sapiens, UniProt P43220); test: HitHunter cAMP assay, GLP-1 receptor; settings: for EC50: CHO cells stably expressing human GLP-1 receptor, cAMP accumulation, 30 min, read-out: EC50 GLP-1R; for Emax: CHO cells, cAMP, normalized to maximum signal from GLP-1 (high) and DMSO (low), read-out: Emax GLP-1R
T1 sequence (P43220 24-463): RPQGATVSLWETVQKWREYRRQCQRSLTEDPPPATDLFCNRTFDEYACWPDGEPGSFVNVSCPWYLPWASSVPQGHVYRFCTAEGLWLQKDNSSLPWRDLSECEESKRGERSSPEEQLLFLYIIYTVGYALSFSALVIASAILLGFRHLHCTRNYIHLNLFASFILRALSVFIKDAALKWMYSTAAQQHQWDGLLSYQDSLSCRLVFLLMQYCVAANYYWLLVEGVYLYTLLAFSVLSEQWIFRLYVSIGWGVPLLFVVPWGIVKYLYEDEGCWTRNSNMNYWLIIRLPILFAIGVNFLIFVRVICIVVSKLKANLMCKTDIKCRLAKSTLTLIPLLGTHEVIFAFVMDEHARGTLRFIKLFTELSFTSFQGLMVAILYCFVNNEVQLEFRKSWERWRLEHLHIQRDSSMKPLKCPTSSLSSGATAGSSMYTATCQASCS
Method: CAMP accumulation was measured in Chinese hamster ovary (CHO) cells stably expressing the human GLP-1 receptor or GIP receptor using the HitHunter CAMP Assay for Small Molecules Kit (Eurofins). Briefly, cells were grown in Ham's F12 Nutrient Mix with 10% FBS and lifted with Cell dissociation buffer, Enzyme free, PBS based (ThermoFisher). Cells were pelleted and resuspended in Hank's buffered saline solution with 10 mM Hepes and 625 μM 3-isobutyl-1-methylxanthine. The antibody reagent was then added to cells at a 1:2 ratio and 5 μL of mixture was seeded in 384-well small volume white assay plates, at 10,000 cells/well. Cells were then treated with 50 nl compound in DMSO using an ECHO 550 acoustic dispenser (Labcyte) in a 20-point dose response format in triplicate for 30 min. Cells were the lysed and detection reagents added according to the manufacturer's protocol. After overnight incubation, luminescence was measured using a Perkin Elmer Envision plate reader. Raw data was normalized to the maximum signal from GLP-1 or GIP (high) and DMSO (low). Dose response curves were analyzed using GraphPad Prism 9.0.

GIP receptor [2] = target: T2, GIP receptor (Homo sapiens, UniProt P48546); test: PathHunter β-arrestin assay, GIP receptor; parameters: host or cells: PathHunter CHO-K1 GIPR β-Arrestin Cell Line; settings: β-arrestin-2 recruitment, PathHunter CHO-K1 GIPR β-Arrestin Cell Line, 90 min at 37° C.; normalized to GIP; read-out: GIPR β Arrestin EC50
T2 sequence (P48546 22-466): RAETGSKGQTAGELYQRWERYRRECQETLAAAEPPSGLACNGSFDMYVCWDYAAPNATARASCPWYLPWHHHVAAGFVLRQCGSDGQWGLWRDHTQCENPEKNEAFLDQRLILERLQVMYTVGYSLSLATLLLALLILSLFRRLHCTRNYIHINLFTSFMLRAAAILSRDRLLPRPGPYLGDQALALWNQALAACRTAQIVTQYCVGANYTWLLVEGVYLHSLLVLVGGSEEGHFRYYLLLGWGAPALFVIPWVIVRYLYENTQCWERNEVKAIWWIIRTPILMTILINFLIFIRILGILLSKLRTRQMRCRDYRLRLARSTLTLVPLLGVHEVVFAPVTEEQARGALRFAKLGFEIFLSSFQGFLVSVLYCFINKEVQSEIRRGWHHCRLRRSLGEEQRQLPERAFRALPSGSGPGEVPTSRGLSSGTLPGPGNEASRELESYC

GLP-1 receptor [3] = target: T1, GLP-1 receptor; test: PathHunter β-arrestin assay, GLP-1 receptor; parameters: host or cells: PathHunter CHO-K1 GLP1R β-Arrestin Cell Line; settings: β-arrestin-2 recruitment, PathHunter CHO-K1 GLP1R β-Arrestin Cell Line, 90 min at 37° C.; normalized to GLP-1; read-out: GLP-1R β Arrestin EC50
GIP receptor [4] = target: T2, GIP receptor; test: HitHunter cAMP assay, GIP receptor; settings: for EC50: CHO cells stably expressing GIP receptor, cAMP accumulation, 30 min, read-out: EC50 GIP-1R; for Emax: CHO cells, cAMP, normalized to maximum signal from GIP (high) and DMSO (low), read-out: Emax GIP-1R

SMILES | EC50 (GLP-1 receptor [1]) [nM] | Emax (GLP-1 receptor [1]) [%] | EC50 (GIP receptor [2]) [nM] | EC50 (GLP-1 receptor [3]) [nM] | EC50 (GIP receptor [4]) [nM] | Emax (GIP receptor [4]) [%]
CC[C@H](C)[C@H](NC(=O)[C@H](CC(C)C)NC(=O)[C@H](Cc1c[nH]c2ccccc12)NC(=O)[C@H](CCC(N)=O)NC(=O)[C@@H](NC(=O)[C@H](Cc1ccccc1)NC(=O)[C@H](C)NC(=O)[C@H](CCCCNC(=O)COCCOCCNC(=O)COCCOCCNC(=O)CC[C@H](NC(=O)CCCCCCCCCCCCCCCCCCC(=O)O)C(=O)O)NC(=O)[C@H](CCC(N)=O)NC(=O)[C@H](C)NC(=O)[C@@H](NC(=O)[C@H](CCCCN)NC(=O)[C@H](CC(=O)O)NC(=O)[C@H](CC(C)C)NC(=O)C(C)(C)NC(=O)[C@@H](NC(=O)[C@H](CO)NC(=O)[C@H](Cc1ccc(O)cc1)NC(=O)[C@H](CC(=O)O)NC(=O)[C@H](CO)NC(=O)[C@@H](NC(=O)[C@H](Cc1ccccc1)NC(=O)[C@@H](NC(=O)CNC(=O)[C@H](CCC(=O)O)NC(=O)CCNC(=O)C1(c2ccccn2)CNC(=O)C1)[C@@H](C)O)[C@@H](C)O)[C@@H](C)CC)[C@@H](C)CC)C(C)C)C(=O)N[C@@H](C)C(=O)NCC(=O)NCC(=O)N1CCC[C@H]1C(=O)N[C@@H](CO)C(=O)N[C@@H](CO)C(=O)NCC(=O)N[C@@H](C)C(=O)N1CCC[C@H]1C(=O)N1CCC[C@H]1C(=O)N1CCC[C@H]1C(=O)N[C@@H](CO)C(N)=O (stereo partly drawn) [Compound 151] ({X79-βAla}-EGTFTSDYSI[Aib]LDKIAQK([AEEA-AEEA-γGlu-C20 diacid])AFVQWLIAGGPSSGAPPPS-NH2) | 1 to 10 | 101 | > 1000 | > 1000 | 1 to 10 | 105
CCOc1cnn(C(C)(C)C(=O)NCCC(=O)N[C@@H](CCC(=O)O)C(=O)NCC(=O)N[C@H](C(=O)N[C@@H](Cc2ccccc2)C(=O)N[C@H](C(=O)N[C@@H](CO)C(=O)N[C@@H](CC(=O)O)C(=O)N[C@@H](Cc2ccc(O)cc2)C(=O)N[C@@H](CO)C(=O)N[C@H](C(=O)NC(C)(C)C(=O)N[C@@H](CC(C)C)C(=O)N[C@@H](CC(=O)O)C(=O)N[C@@H](CCCCN)C(=O)N[C@H](C(=O)N[C@@H](C)C(=O)N[C@@H](CCC(N)=O)C(=O)N[C@@H](CCCCNC(=O)COCCOCCNC(=O)COCCOCCNC(=O)CC[C@H](NC(=O)CCCCCCCCCCCCCCCCCCC(=O)O)C(=O)O)C(=O)N[C@@H](C)C(=O)N[C@@H](Cc2ccccc2)C(=O)N[C@H](C(=O)N[C@@H](CCC(N)=O)C(=O)N[C@@H](Cc2c[nH]c3ccccc23)C(=O)N[C@@H](CC(C)C)C(=O)N[C@H](C(=O)N[C@@H](C)C(=O)NCC(=O)NCC(=O)N2CCC[C@H]2C(=O)N[C@@H](CO)C(=O)N[C@@H](CO)C(=O)NCC(=O)N[C@@H](C)C(=O)N2CCC[C@H]2C(=O)N2CCC[C@H]2C(=O)N2CCC[C@H]2C(=O)N[C@@H](CO)C(N)=O)[C@@H](C)CC)C(C)C)[C@@H](C)CC)[C@@H](C)CC)[C@@H](C)O)[C@@H](C)O)c1 [Compound 152] ({X42-βAla}-EGTFTSDYSI[Aib]LDKIAQK([AEEA-AEEA-γGlu-C20 diacid])AFVQWLIAGGPSSGAPPPS-NH2) | 0.1 to 1 | 98 | > 1000 | > 1000 | 10 to 100 | 104
CC[C@H](C)[C@H](NC(=O)[C@H](CO)NC(=O)[C@H](CCCCNC(=O)COCCOCCNC(=O)COCCOCCNC(=O)CC[C@H](NC(=O)CCCCCCCCCCCCCCCCCCC(=O)O)C(=O)O)NC(=O)[C@H](CC(=O)O)NC(=O)[C@H](CO)NC(=O)[C@@H](NC(=O)[C@H](Cc1ccccc1)NC(=O)[C@@H](NC(=O)CNC(=O)[C@H](CCC(=O)O)NC(=O)CCNC(=O)C1(c2ccccc2)CCC(=O)NC1)[C@@H](C)O)[C@@H](C)O)C(=O)N[C@@H](Cc1ccc(O)cc1)C(=O)N[C@@H](CC(C)C)C(=O)N[C@@H](CC(=O)O)C(=O)N[C@@H](CCCCN)C(=O)N[C@@H](CCC(N)=O)C(=O)N[C@@H](C)C(=O)N[C@@H](C)C(=O)NC(C)(C)C(=O)N[C@@H](CCC(=O)O)C(=O)N[C@@H](Cc1ccccc1)C(=O)N[C@H](C(=O)N[C@@H](CC(N)=O)C(=O)N[C@@H](Cc1c[nH]c2ccccc12)C(=O)N[C@@H](CC(C)C)C(=O)N[C@@H](CC(C)C)C(=O)N[C@@H](C)C(=O)NCC(=O)NCC(=O)N1CCC[C@H]1C(=O)N[C@@H](CO)C(=O)N[C@@H](CO)C(=O)NCC(=O)N[C@@H](C)C(=O)N1CCC[C@H]1C(=O)N1CCC[C@H]1C(=O)N1CCC[C@H]1C(=O)N[C@@H](CO)C(N)=O)C(C)C (stereo partly drawn) [Compound 153] ({X43-βAla}-EGTFTSDK([AEEA-AEEA-γGlu-C20 diacid])SIYLDKQAA[Aib]EFVNWLLAGGPSSGAPPPS-NH2) | 0.1 to 1 | 101 | > 1000 | > 1000 | 1 to 10 | 105
CC[C@H](C)[C@H](NC(=O)[C@H](CO)NC(=O)[C@H](Cc1ccc(O)cc1)NC(=O)[C@H](CC(=O)O)NC(=O)[C@H](CO)NC(=O)[C@@H](NC(=O)[C@H](Cc1ccccc1)NC(=O)[C@@H](NC(=O)CNC(=O)[C@H](CCC(=O)O)NC(=O)CCNC(=O)C1(c2ccccc2)CCOCC1)[C@@H](C)O)[C@@H](C)O)C(=O)N[C@@H](Cc1ccc(O)cc1)C(=O)N[C@@H](CC(C)C)C(=O)N[C@@H](CC(=O)O)C(=O)N[C@@H](CCCCN)C(=O)N[C@@H](CCC(N)=O)C(=O)N[C@@H](C)C(=O)N[C@@H](C)C(=O)NC(C)(C)C(=O)N[C@@H](CCC(=O)O)C(=O)N[C@@H](Cc1ccccc1)C(=O)N[C@H](C(=O)N[C@@H](CC(N)=O)C(=O)N[C@@H](Cc1c[nH]c2ccccc12)C(=O)N[C@@H](CC(C)C)C(=O)N[C@@H](CC(C)C)C(=O)N[C@@H](C)C(=O)NCC(=O)NCC(=O)N1CCC[C@H]1C(=O)N[C@@H](CO)C(=O)N[C@@H](CO)C(=O)NCC(=O)N[C@@H](C)C(=O)N1CCC[C@H]1C(=O)N1CCC[C@H]1C(=O)N1CCC[C@H]1C(=O)N[C@@H](CO)C(=O)N[C@@H](CCCCNC(=O)COCCOCCNC(=O)COCCOCCNC(=O)CC[C@H](NC(=O)CCCCCCCCCCCCCCCCCCC(=O)O)C(=O)O)C(N)=O)C(C)C [Compound 154] | 1 to 10 | 99 | > 1000 | > 1000 | 10 to 100 | 106
CC[C@H](C)[C@H](NC(=O)[C@H](CO)NC(=O)[C@H](Cc1ccc(O)cc1)NC(=O)[C@H](CC(=O)O)NC(=O)[C@H](CO)NC(=O)[C@@H](NC(=O)[C@H](Cc1ccccc1)NC(=O)[C@@H](NC(=O)CNC(=O)[C@H](CCC(=O)O)NC(=O)CCNC(=O)C1(c2ccc(Cl)cc2)CCCC1)[C@@H](C)O)[C@@H](C)O)C(=O)N[C@@H](Cc1ccc(O)cc1)C(=O)N[C@@H](CC(C)C)C(=O)N[C@@H](CC(=O)O)C(=O)N[C@@H](CCCCN)C(=O)N[C@@H](CCC(N)=O)C(=O)N[C@@H](C)C(=O)N[C@@H](C)C(=O)NC(C)(C)C(=O)N[C@@H](CCC(=O)O)C(=O)N[C@@H](Cc1ccccc1)C(=O)N[C@H](C(=O)N[C@@H](CC(N)=O)C(=O)N[C@@H](Cc1c[nH]c2ccccc12)C(=O)N[C@@H](CC(C)C)C(=O)N[C@@H](CC(C)C)C(=O)N[C@@H](C)C(=O)NCC(=O)NCC(=O)N1CCC[C@H]1C(=O)N[C@@H](CO)C(=O)N[C@@H](CO)C(=O)NCC(=O)N[C@@H](C)C(=O)N1CCC[C@H]1C(=O)N1CCC[C@H]1C(=O)N1CCC[C@H]1C(=O)N[C@@H](CO)C(=O)N[C@@H](CCCCNC(=O)COCCOCCNC(=O)COCCOCCNC(=O)CC[C@H](NC(=O)CCCCCCCCCCCCCCCCCCC(=O)O)C(=O)O)C(N)=O)C(C)C [Compound 155] | 1 to 10 | 101 | > 1000 | > 1000 | 10 to 100 | 104
CC[C@H](C)[C@H](NC(=O)[C@H](CO)NC(=O)[C@H](Cc1ccc(O)cc1)NC(=O)[C@H](CC(=O)O)NC(=O)[C@H](CO)NC(=O)[C@@H](NC(=O)[C@H](Cc1ccccc1)NC(=O)[C@@H](NC(=O)CNC(=O)[C@H](CCC(=O)O)NC(=O)CCNC(=O)C1(c2ccccc2)CCC(=O)NC1)[C@@H](C)O)[C@@H](C)O)C(=O)N[C@@H](Cc1ccc(O)cc1)C(=O)N[C@@H](CC(C)C)C(=O)N[C@@H](CC(=O)O)C(=O)N[C@@H](CCCCN)C(=O)N[C@@H](CCC(N)=O)C(=O)N[C@@H](C)C(=O)N[C@@H](C)C(=O)NC(C)(C)C(=O)N[C@@H](CCC(=O)O)C(=O)N[C@@H](Cc1ccccc1)C(=O)N[C@H](C(=O)N[C@@H](CC(N)=O)C(=O)N[C@@H](Cc1c[nH]c2ccccc12)C(=O)N[C@@H](CC(C)C)C(=O)N[C@@H](CC(C)C)C(=O)N[C@@H](C)C(=O)NCC(=O)NCC(=O)N1CCC[C@H]1C(=O)N[C@@H](CO)C(=O)N[C@@H](CO)C(=O)NCC(=O)N[C@@H](C)C(=O)N1CCC[C@H]1C(=O)N1CCC[C@H]1C(=O)N1CCC[C@H]1C(=O)N[C@@H](CO)C(=O)N[C@@H](CCCCNC(=O)COCCOCCNC(=O)COCCOCCNC(=O)CC[C@H](NC(=O)CCCCCCCCCCCCCCCCCCC(=O)O)C(=O)O)C(N)=O)C(C)C (stereo partly drawn) [Compound 156] | 1 to 10 | 95 | > 1000 | > 1000 | 1 to 10 | 95
